According to ChEMBL document CHEMBL1201862, “PubChem BioAssay data set” (2004):
Active and inactive are the calls of the source.

What was measured:
[1] = target: T1, Estrogen receptor (Homo sapiens, UniProt P03372); assay: ERα coactivator recruitment enhancers – biochemical, TR-FRET, ERα LBD, dose response (AID 737)
T1 sequence (P03372 whole entry): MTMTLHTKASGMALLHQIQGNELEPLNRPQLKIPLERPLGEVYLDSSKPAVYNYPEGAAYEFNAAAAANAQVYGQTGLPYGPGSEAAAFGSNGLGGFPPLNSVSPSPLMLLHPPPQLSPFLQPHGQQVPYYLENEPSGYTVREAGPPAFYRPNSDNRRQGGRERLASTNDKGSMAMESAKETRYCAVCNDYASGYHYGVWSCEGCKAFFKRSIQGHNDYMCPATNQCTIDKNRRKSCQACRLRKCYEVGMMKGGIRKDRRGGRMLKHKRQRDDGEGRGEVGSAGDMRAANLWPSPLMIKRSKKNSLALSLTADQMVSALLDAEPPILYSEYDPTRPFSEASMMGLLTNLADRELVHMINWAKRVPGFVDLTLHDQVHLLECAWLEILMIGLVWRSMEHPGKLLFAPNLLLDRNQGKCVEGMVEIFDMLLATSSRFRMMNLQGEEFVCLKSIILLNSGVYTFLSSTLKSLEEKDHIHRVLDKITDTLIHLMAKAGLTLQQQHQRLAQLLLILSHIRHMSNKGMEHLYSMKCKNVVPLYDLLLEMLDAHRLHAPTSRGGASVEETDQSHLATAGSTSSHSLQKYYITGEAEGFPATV

[2] = antiviral protection against BTV-induced cell death – arbovirus, BSR cells, confirmation (AID 1250); type: functional;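 also: protection from viral cytopathic effect measured as cell viability by ATP luminescence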
[3] = target: Estrogen receptor beta (Homo sapiens, UniProt Q92731); assay: blockers of SRC-3 recruitment to ERβ – biochemical, ELISA, streptavidin-HRP readout, orthogonal assay, confirmation (AID 1060)
Chain of Estrogen receptor beta (Q92731 whole entry): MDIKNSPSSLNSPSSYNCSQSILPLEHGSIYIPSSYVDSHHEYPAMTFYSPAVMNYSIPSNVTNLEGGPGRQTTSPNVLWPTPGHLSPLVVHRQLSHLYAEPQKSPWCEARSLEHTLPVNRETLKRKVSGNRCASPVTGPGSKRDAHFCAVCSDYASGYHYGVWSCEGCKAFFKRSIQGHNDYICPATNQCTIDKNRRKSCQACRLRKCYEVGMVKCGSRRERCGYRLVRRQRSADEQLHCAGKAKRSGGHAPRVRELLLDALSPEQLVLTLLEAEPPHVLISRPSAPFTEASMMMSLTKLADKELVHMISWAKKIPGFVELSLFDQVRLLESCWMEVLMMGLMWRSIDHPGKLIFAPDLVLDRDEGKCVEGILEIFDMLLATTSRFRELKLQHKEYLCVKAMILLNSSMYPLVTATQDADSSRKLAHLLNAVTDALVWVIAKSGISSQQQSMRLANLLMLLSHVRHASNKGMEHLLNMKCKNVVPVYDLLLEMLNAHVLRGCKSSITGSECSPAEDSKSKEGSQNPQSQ

[4] = target: Cytochrome P450 2C19 (Homo sapiens, UniProt P33261); assay: Cytochrome panel assay with activity outcomes. Panel member name: p450-cyp2c19 Compounds with AC50 equal or less than 10 uM are considered active; type: functional; conditions: read-out: AC50
Chain of Cytochrome P450 2C19 (P33261 whole entry): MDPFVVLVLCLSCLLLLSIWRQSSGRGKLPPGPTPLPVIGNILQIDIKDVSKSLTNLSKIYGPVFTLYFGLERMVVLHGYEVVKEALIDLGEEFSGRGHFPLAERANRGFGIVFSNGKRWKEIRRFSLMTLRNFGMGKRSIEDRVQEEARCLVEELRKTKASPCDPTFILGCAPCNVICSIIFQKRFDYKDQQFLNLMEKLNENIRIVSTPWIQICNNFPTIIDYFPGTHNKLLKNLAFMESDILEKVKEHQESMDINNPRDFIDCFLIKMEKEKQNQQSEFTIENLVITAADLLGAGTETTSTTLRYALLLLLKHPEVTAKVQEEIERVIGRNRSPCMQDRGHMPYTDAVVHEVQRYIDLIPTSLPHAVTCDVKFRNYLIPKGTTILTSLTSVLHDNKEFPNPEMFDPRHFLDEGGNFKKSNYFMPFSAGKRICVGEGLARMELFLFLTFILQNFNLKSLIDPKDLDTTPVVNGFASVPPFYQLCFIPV

[5] = Luminescence Cell-Based Dose Response to Identify Activators of 5'UTR Stem-Loop Driven Prion Protein mRNA Translation in H4-C Neuroglioblastoma Cells. [Related pubchem assays: 1829 (Project Summary), 1814 (Primary HTS)]; type: functional
[6] = Luminescence Cell-Based Dose Confirmation to Identify Activators of 5'UTR Stem-Loop Driven Alpha-Synuclein mRNA Translation in H4 Neuroglioblastoma Cells. [Related pubchem assays: 1829 (Project Summary), 1814 (Primary HTS)]; type: functional
[7] = Luminescence Cell-Based Dose Response to Identify Activators of Luciferase Translation or Activity in H4-C Neuroglioblastoma Cells. [Related pubchem assays: 1829 (Project Summary), 1814 (Primary HTS)]; type: functional
[8] = Luminescence Cell-Based Dose Response HTS to Identify Activators of Luciferase Translation or Activity in H4 […] Cells. [Related pubchem assays: 1829 (Project Summary), 1814 (Primary HTS)]; type: functional
[9] = target: Heat shock protein HSP 90-alpha (Homo sapiens, UniProt P07900); assay: Luminescence-based dose response biochemical high throughput screening assay for inhibitors of the Heat Shock Protein 90 (HSP90). [Related pubchem assays: 1831 (Summary AID.), 1846 (Confirmation screen.), 1789 (Primary screen.)]
[10] = Reduced DLD-1 viability, concentration-response, CellTiter-Glo luminescence (AID 1117352); type: functional
[11] = target: T2, Polyadenylate-binding protein 1 (Homo sapiens, UniProt P11940); assay: MLLE binding blockers, Cy5 peptide tracer – biochemical, fluorescence polarization, Cy5-PAM2 peptide, secondary, miRNA deadenylation inhibitor project, dose response (AID 602260); type: functional; conditions: read-out: IC50_Mean
T2 sequence (P11940 whole entry, the tested form may be a part): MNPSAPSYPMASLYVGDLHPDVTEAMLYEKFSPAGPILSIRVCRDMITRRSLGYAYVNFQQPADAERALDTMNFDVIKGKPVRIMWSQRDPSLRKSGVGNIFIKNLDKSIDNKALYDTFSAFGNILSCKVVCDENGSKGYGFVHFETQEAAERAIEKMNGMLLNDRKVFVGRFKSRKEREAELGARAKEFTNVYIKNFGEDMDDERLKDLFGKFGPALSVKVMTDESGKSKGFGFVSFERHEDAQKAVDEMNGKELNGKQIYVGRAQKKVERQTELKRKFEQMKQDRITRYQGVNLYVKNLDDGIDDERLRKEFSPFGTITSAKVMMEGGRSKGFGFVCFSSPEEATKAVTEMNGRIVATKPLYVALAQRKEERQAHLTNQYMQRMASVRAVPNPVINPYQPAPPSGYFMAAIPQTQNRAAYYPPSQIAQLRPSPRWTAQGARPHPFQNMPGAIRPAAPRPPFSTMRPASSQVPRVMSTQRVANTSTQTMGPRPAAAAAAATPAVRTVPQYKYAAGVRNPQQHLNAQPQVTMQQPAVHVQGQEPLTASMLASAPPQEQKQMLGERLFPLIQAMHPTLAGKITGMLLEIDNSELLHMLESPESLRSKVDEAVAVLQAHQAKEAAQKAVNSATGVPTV

[12] = target: T2, Polyadenylate-binding protein 1; assay: MLLE domain peptide-binding blockers, IC50 – biochemical, fluorescence polarization, FITC-PAM2 peptide, dose response (AID 602259); type: functional; conditions: read-out: IC50_Mean
[13] = CellTiter-Glo luminescence survival assay, SW480 colon tumor line, concentration-response curve, half-maximal inhibitory concentration (AID 1117338); type: functional
[14] = HCT116 cell viability decrease, GSK3B pretreatment – CellTiter-Glo, IC50, dose response (AID 1117339); type: functional; conditions: HCT-116
[15] = cytotoxicity toward Colo320 cells – cell-based, CellTiter-Glo luminescence, IC50, dose response (AID 1117334); type: functional; conditions: COLO 320
[16] = SNU-C1 cell viability reduction, dose response, CellTiter-Glo luminescence (AID 1117323); type: functional, cell-based
[17] = cytotoxicity toward HCT116 cells – cell-based, CellTiter-Glo luminescence, IC50, dose response (AID 1117332); type: functional; conditions: HCT-116
[18] = cytotoxicity toward HT-29 cells – cell-based, CellTiter-Glo luminescence, IC50, dose response (AID 1117330); type: functional

CCOc1ccc(CC2SC(Nc3ccccn3)=NC2=O)cc1 (stereo not drawn)
EC50 [1]: 25.1 µM (active)

O=C(Nc1sc2c(c1C(=O)O)CCCCC2)c1cccs1
IC50 [2]: 27.6 µM (active)

Nc1cc(-c2nnn[nH]2)ccc1F
IC50 [3]: 0.859 µM (not active) | AC50 [4]: 28.2 µM (inconclusive)

CC(C)c1ccc(C(=O)NNC(=O)C2C3CCC(C3)C2C(=O)O)cc1 (stereo not drawn)
EC50 [5]: 0.281 µM (active) | EC50 [6]: 0.232 µM (active) | EC50 [7]: 0.301 µM (active) | EC50 [8]: < 0.1 µM (inconclusive)

O=C(O)c1cc(N/N=C/c2c[nH]c3ccccc23)ccc1Cl
IC50 [9]: > 2 µM (active)

COP(=S)(OC)Oc1ccc(Sc2ccc(OP(=S)(OC)OC)cc2)cc1 [TEMEFOS]
IC50 [10]: > 20 µM (inactive) | IC50 [11]: > 66 µM (inactive) | IC50 [12]: > 66 µM (inactive) | IC50 [13]: 0.0118 µM (active) | IC50 [14]: > 20 µM (inactive) | IC50 [15]: > 20 µM (inactive) | IC50 [16]: 3.03 µM (active) | IC50 [17]: > 20 µM (inactive) | IC50 [18]: > 20 µM (inactive)
